Holding throughout (type): physicochemical
Data set [1] can be described thus: Kinetic solubility in water at 37° C. How it is done:
(§1) In SGF, concentrations were below 1 μg/mL up until 6 hours. The resulting solid was form A. In water, a concentration of 0.3 mg/mL was achieved within 2 minutes and concentration after 6 hours was about 0.5 mg/mL.
(§2) In SGF, concentrations were below 1 μg/mL up until 6 hours. The resulting solid was non-crystalline by XRPD. In water, a concentration of 2.3 mg/mL was achieved within 2 minutes and concentration after 6 hours was about 3.1 mg/mL.

Data set [2] is described as follows: Equilibrium aqueous solubility in water at ambient temperature. How it is done:
Equilibrium solubility of Compound 1 and 1-A was measured in water at ambient temperature. A known volume of water was placed in a 1-dram glass vial and weight aliquots of Compound 1 or Compound 1-A were added while magnetically stirring at room temperature. If the solid dissolved, another aliquot of […] was added.

Data set [3] is described as follows: Kinetic solubility in simulated gastric fluid (SGF). Particulars: for Resulting solid after kinetic solubility in SGF (XRPD): SGF pH about 1.2; for Concentration in SFG: SGF pH about 1.2, 37° C.; for Concentrations in SGF up until 6 hours: SGF pH about 1.2, all time points up until 6 hours. The method, then: as §1, §2
Data set [4] can be described thus: Dynamic vapor sorption (DVS) hygroscopicity. Particulars: for Hygroscopicity / water uptake (DVS): 25° C., 5 to 95% RH. How it is done: DVS analysis was carried out using a TA Instruments Q5000 Dynamic Vapor Sorption analyzer. The instrument was calibrated with standard weights and a sodium bromide standard for humidity. Approximately 10-25 mg of sample was loaded into a metalcoated quartz pan for analysis. The sample was analyzed at 25° C. with a maximum equilibration time of one hour in 10% relative humidity (RH) steps from 5 to 95% RH (adsorption cycle) and from 95 to 5% RH (desorption cycle). The movement from one step to the next occurred either after satisfying the equilibrium criterion of 0.01% weight change or, if the equilibrium criterion was not met, after one hour. The percent weight change values were calculated using Microsoft Excel®.

Data set [5] can be described thus: Competitive slurry (interconversion) experiments, solid form by XRPD. Particulars: all competitive slurry conditions tested. How it is done: Solutions (˜2 mL) were saturated with Form A of Compound 1. Once saturated, they were centrifuged and the mother liquors were transferred to HPLC vials containing equal amounts (approximately 10 mg each) of Forms A, C, D, and E. The samples were then stirred magnetically at a specified temperature for 3 days. Solids were collected by vacuum filtration.

Molecules are shown by their SMILES. Where “and” joins values, the source holds several entries; their conditions need not be identical. Identical values can stand only once. Entries after “also recorded” stand apart in the source; their conditions may differ. Counter-ions that a name gives are not always drawn.

As for `Cc1cc(OCP(=O)(O)O)cc(C)c1Cc1ccc(O)c(Cc2ccccc2)c1` [Compound 1], the Concentration in water in data set [1] (2 min) was 300 µg/mL and 290 µg/mL; in data set [1] (5 min) it was 330 µg/mL; in data set [1] (10 min), 300 µg/mL; in data set [1] (30 min), 290 µg/mL; in data set [1] (60 min) it was 400 µg/mL; in data set [1] (120 min) it was 410 µg/mL. In data set [1] (240 min), this compound gave a Concentration in water of 390 µg/mL. The “Concentration at 4 hours” value in data set [2] worked out at 300 µg/mL. Also, the “Concentration at 24 hours” value in data set [2] was determined as 320 µg/mL. For the same compound, the “Concentration at 48 hours” value in data set [2] was found to be 320 µg/mL. The “Resulting solid after kinetic solubility in SGF (XRPD)” value in data set [3] is “form A”. The “Concentration in SFG” value in data set [3] (2 min) is 0.4 µg/mL; in data set [3] (5 min) it was 0.18 µg/mL; in data set [3] (10 min) it was 0.11 µg/mL; in data set [3] (30 min), 0.1 µg/mL; in data set [3] (60 min), 0.07 µg/mL; in data set [3] (120 min), 0.37 µg/mL. Moreover, the figures for the “Concentration in SFG” value in data set [3] (240 min) and in data set [3] (360 min) were 0.15 µg/mL and 0.1 µg/mL, respectively. Besides, the “Concentrations in SGF up until 6 hours” value in data set [3] is listed as “below 1 μg/mL”.
For `Cc1cc(OCP(=O)(O)O)cc(C)c1Cc1ccc(O)c(Cc2ccccc2)c1` [Crystalline Form 2], in data set [4] (listed as Crystal Form 2), the “Hygroscopicity / water uptake (DVS)” value is reported as “moderately hygroscopic”.
`Cc1cc(OCP(=O)(O)O)cc(C)c1Cc1ccc(O)c(Cc2ccccc2)c1` [Compound 1-A, (2-dimethylamino)ethanol (“deanol”) salt of Compound 1]: the Concentration in water came out at 2250 µg/mL in data set [1] (2 min); 2660 µg/mL in data set [1] (5 min); 2980 µg/mL in data set [1] (10 min); 3070 µg/mL in data set [1] (30 min); 3140 µg/mL in data set [1] (60 min); 2280 µg/mL in data set [1] (120 min). For the same compound, the Concentration in water in data set [1] (240 min) was 2870 µg/mL; in data set [1] (360 min (6 hours)), 3070 µg/mL. Also, the “Concentration at 4 hours” value in data set [2] was 1450 µg/mL. In addition, in data set [2], the “Concentration at 24 hours” value came to 1430 µg/mL. For the same compound, the “Concentration at 48 hours” value in data set [2] was found to be 1420 µg/mL. For the same compound, the “Concentration in SFG” value is 0.35 µg/mL in data set [3] (2 min); 0.17 µg/mL in data set [3] (5 min); 0.11 µg/mL in data set [3] (10 min); 0.08 µg/mL in data set [3] (30 min); 0.05 µg/mL in data set [3] (60 min); 0.28 µg/mL in data set [3] (120 min). For the same compound, the “Concentration in SFG” value in data set [3] (240 min) was 0.21 µg/mL; in data set [3] (360 min), 0.07 µg/mL.
Take `Cc1cc(OCP(=O)(O)O)cc(C)c1Cc1ccc(O)c(Cc2ccccc2)c1` [Crystalline Form 1]: the “Resulting solid after kinetic solubility in water” value in data set [1] is recorded as “crystalline Form 3”. For the same compound, the Concentration in water in data set [1] (2 min, listed as Compound 1-A (Form 1)) was 2300 µg/mL; in data set [1] (360 min (6 hours), listed as Compound 1-A (Form 1)), “about 3.1 mg/mL”. The “Concentrations in SGF up until 6 hours” value in data set [3] is “below 1 μg/mL”. Further, the “Resulting solid after kinetic solubility in SGF (XRPD)” value in data set [3] (listed as Compound 1-A (Form 1)) is “non-crystalline”.
In the case of `Cc1cc(OCP(=O)(O)O)cc(C)c1Cc1ccc(O)c(Cc2ccccc2)c1` [Crystalline Form A], the “Relative stability of crystal forms” value in data set [5] is on record as “most stable form”. In data set [4], the Stability over humidity entry is given as “stable over a wide range of humidity” and the “Hygroscopicity / water uptake (DVS)” value was “moderately hygroscopic; also recorded: moderate water uptake”.
Consider `Cc1cc(OCP(=O)(O)O)cc(C)c1Cc1ccc(O)c(Cc2ccccc2)c1` [Crystalline Form 3], for which the “Hygroscopicity / water uptake (DVS)” value in data set [4] is “slight water uptake”.
